Positions of bridges follow the written chain, without caps; N, C: chain ends. Non-standard residues stand in square brackets, D forms with d. Residues, ends and D or L forms follow the SMILES beside them. *: point of attachment. Trp(1-CH2COOH) = N[C@@H](Cc1cn(CC(=O)O)c2ccccc12)C(=O)O; Phe(3-COOH) = N[C@@H](Cc1cccc(C(=O)O)c1)C(=O)O; NH(CH2CH2O)8Me = COCCOCCOCCOCCOCCOCCOCCOCCN*; NMePhe(3-Cl) = CN[C@@H](Cc1cccc(Cl)c1)C(=O)O; 3Pal(6-NH2) = Nc1ccc(C[C@H](N)C(=O)O)cn1; NMeY = CN[C@@H](Cc1ccc(O)cc1)C(=O)O; 3Pal = N[C@@H](Cc1cccnc1)C(=O)O; 4Pal = N[C@@H](Cc1ccncc1)C(=O)O; PEG4 = NCCOCCOCCOCCOCCC(=O)O; Carboxymethyl = O=C(O)C*
Molecular target: T1, human transferrin receptor (hTfR) (Homo sapiens, UniProt P02786)
T1 construct: made in house
Assay: Evaluation of molecular interaction between transferrin receptor (hTfR) and peptide using surface plasmon resonance (SPR)
Type: binding
Conditions: surface plasmon resonance, binding to hTfR; KD class symbol; read-out: SPR (KD value)
Method in brief: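 Recombinant human TfR dimer (0.5 μM) was captured on a Ni-charged NTA chip and amine-coupled with EDC/NHS, then ethanolamine-capped. Peptides at 5–100 nM in HEPES pH 8.0 buffer with 150 mM NaCl, 0.05% Tween 20, 0.1% BSA and 1.0% DMSO were run by single-cycle kinetics; KD came from least-squares curve fitting.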

T1 sequence (P02786 89-760 limits assumed): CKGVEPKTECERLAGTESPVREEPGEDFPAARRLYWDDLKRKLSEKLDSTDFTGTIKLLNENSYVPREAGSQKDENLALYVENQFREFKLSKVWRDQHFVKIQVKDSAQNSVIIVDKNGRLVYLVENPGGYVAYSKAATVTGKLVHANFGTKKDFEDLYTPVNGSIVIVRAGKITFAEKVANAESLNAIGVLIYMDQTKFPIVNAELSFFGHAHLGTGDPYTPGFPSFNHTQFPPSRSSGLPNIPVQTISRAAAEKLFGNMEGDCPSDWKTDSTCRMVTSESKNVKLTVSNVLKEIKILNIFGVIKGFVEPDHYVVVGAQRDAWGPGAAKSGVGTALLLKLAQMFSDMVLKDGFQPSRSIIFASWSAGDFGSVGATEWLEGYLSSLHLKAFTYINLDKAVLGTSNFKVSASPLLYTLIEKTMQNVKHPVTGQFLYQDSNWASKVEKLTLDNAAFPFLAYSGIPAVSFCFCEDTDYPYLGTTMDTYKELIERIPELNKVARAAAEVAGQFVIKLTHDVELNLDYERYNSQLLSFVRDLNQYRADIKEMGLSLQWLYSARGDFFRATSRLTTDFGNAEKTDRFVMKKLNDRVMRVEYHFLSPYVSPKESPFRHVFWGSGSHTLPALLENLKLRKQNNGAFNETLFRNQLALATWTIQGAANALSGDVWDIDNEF

Kd [nM]	Compound
1 to 100	CC[C@H](C)[C@@H]1NC(=O)[C@H](Cc2ccc(OCC(=O)O)cc2)NC(=O)[C@H](Cc2ccc(O)cc2)NC(=O)[C@H](CC(N)=O)NC(=O)[C@H](Cc2cn(CC(=O)O)c3ccccc23)NC(=O)[C@H](C(C)C)NC(=O)[C@H](Cc2cccc(Cl)c2)N(C)C(=O)[C@H](C(C)C)NC(=O)[C@H](C)NC(=O)CSC[C@@H](C(=O)NCCOCCOCCOCCOCCC(N)=O)NC(=O)[C@H](Cc2ccc(O)cc2)N(C)C(=O)[C@H](Cc2ccncc2)NC(=O)[C@H](CCC(=O)NCCOCCOCCOCCOCCOCCOCCOCCOC)NC(=O)[C@H](CCCNC(=N)N)NC(=O)[C@H]([C@@H](C)CC)NC1=O [compound 82] ({CH2CO}-AV[NMePhe(3-Cl)]V[Trp(1-CH2COOH)]NYY(Carboxymethyl)IIRE(NH(CH2CH2O)8Me)[4Pal][NMeY]C[PEG4]-NH2; thioether N-15)
1 to 100	CC[C@H](C)[C@@H]1NC(=O)[C@H](Cc2cccnc2)NC(=O)[C@H](Cc2ccc(O)cc2)NC(=O)[C@H](CC(N)=O)NC(=O)[C@H](Cc2cn(CC(=O)O)c3ccccc23)NC(=O)[C@H](C(C)C)NC(=O)[C@H](Cc2cccc(Cl)c2)N(C)C(=O)[C@H](C(C)C)NC(=O)[C@H](C)NC(=O)CSC[C@@H](C(=O)NCCOCCOCCOCCOCCC(N)=O)NC(=O)[C@H](Cc2ccc(O)cc2)N(C)C(=O)[C@H](Cc2ccncc2)NC(=O)[C@H](CCC(=O)NCCOCCOCCOCCOCCOCCOCCOCCOC)NC(=O)[C@H](CCCNC(=N)N)NC(=O)[C@H]([C@@H](C)CC)NC1=O [compound 83] ({CH2CO}-AV[NMePhe(3-Cl)]V[Trp(1-CH2COOH)]NY[3Pal]IIRE(NH(CH2CH2O)8Me)[4Pal][NMeY]C[PEG4]-NH2; thioether N-15)
1 to 100	CC[C@H](C)[C@@H]1NC(=O)[C@H](Cc2cccnc2)NC(=O)[C@H](Cc2ccc(O)cc2)NC(=O)[C@H](CC(N)=O)NC(=O)[C@H](Cc2cn(CC(=O)O)c3ccccc23)NC(=O)[C@H](C(C)C)NC(=O)[C@H](Cc2cccc(Cl)c2)N(C)C(=O)[C@H](C(C)C)NC(=O)[C@H](C)NC(=O)CSC[C@@H](C(=O)NCCOCCOCCOCCOCCC(N)=O)NC(=O)[C@H](Cc2ccc(O)cc2)N(C)C(=O)[C@H](Cc2cccc(C(=O)O)c2)NC(=O)[C@H](CCC(=O)NCCOCCOCCOCCOCCOCCOCCOCCOC)NC(=O)[C@H](CCCNC(=N)N)NC(=O)[C@H]([C@@H](C)CC)NC1=O [compound 84] ({CH2CO}-AV[NMePhe(3-Cl)]V[Trp(1-CH2COOH)]NY[3Pal]IIRE(NH(CH2CH2O)8Me)[Phe(3-COOH)][NMeY]C[PEG4]-NH2; thioether N-15)
100 to 1000	CC[C@H](C)[C@@H]1NC(=O)[C@H](Cc2cccnc2)NC(=O)[C@H](Cc2ccc(N)nc2)NC(=O)[C@H](CC(N)=O)NC(=O)[C@H](Cc2cn(CC(=O)O)c3ccccc23)NC(=O)[C@H](C(C)C)NC(=O)[C@H](Cc2cccc(Cl)c2)N(C)C(=O)[C@H](C(C)C)NC(=O)[C@H](C)NC(=O)CSC[C@@H](C(=O)NCCOCCOCCOCCOCCC(N)=O)NC(=O)[C@H](Cc2ccc(O)cc2)N(C)C(=O)[C@H](Cc2cccc(C(=O)O)c2)NC(=O)[C@H](CCC(=O)NCCOCCOCCOCCOCCOCCOCCOCCOC)NC(=O)[C@H](CCCNC(=N)N)NC(=O)[C@H]([C@@H](C)CC)NC1=O [compound 85] ({CH2CO}-AV[NMePhe(3-Cl)]V[Trp(1-CH2COOH)]N[3Pal(6-NH2)][3Pal]IIRE(NH(CH2CH2O)8Me)[Phe(3-COOH)][NMeY]C[PEG4]-NH2; thioether N-15)
100 to 1000	CC[C@H](C)[C@@H]1NC(=O)[C@H](Cc2cccnc2)NC(=O)[C@H](Cc2ccc(N)nc2)NC(=O)[C@H](CC(N)=O)NC(=O)[C@H](Cc2cn(CC(=O)O)c3ccccc23)NC(=O)[C@H](C(C)C)NC(=O)[C@H](Cc2cccc(Cl)c2)N(C)C(=O)[C@H](C(C)C)NC(=O)[C@H](C)NC(=O)CSC[C@@H](C(=O)NCCOCCOCCOCCOCCC(N)=O)NC(=O)[C@H](Cc2ccc(O)cc2)N(C)C(=O)[C@H](Cc2ccncc2)NC(=O)[C@H](CCC(=O)NCCOCCOCCOCCOCCOCCOCCOCCOC)NC(=O)[C@H](CCCNC(=N)N)NC(=O)[C@H]([C@@H](C)CC)NC1=O [compound 86] ({CH2CO}-AV[NMePhe(3-Cl)]V[Trp(1-CH2COOH)]N[3Pal(6-NH2)][3Pal]IIRE(NH(CH2CH2O)8Me)[4Pal][NMeY]C[PEG4]-NH2; thioether N-15)
100 to 1000	CC[C@H](C)[C@@H]1NC(=O)[C@H](Cc2ccc(OCC(=O)O)cc2)NC(=O)[C@H](Cc2ccc(N)nc2)NC(=O)[C@H](CC(N)=O)NC(=O)[C@H](Cc2cn(CC(=O)O)c3ccccc23)NC(=O)[C@H](C(C)C)NC(=O)[C@H](Cc2cccc(Cl)c2)N(C)C(=O)[C@H](C(C)C)NC(=O)[C@H](C)NC(=O)CSC[C@@H](C(=O)NCCOCCOCCOCCOCCC(N)=O)NC(=O)[C@H](Cc2ccc(O)cc2)N(C)C(=O)[C@H](Cc2cccc(C(=O)O)c2)NC(=O)[C@H](CCC(=O)NCCOCCOCCOCCOCCOCCOCCOCCOC)NC(=O)[C@H](CCCNC(=N)N)NC(=O)[C@H]([C@@H](C)CC)NC1=O [compound 87] ({CH2CO}-AV[NMePhe(3-Cl)]V[Trp(1-CH2COOH)]N[3Pal(6-NH2)]Y(Carboxymethyl)IIRE(NH(CH2CH2O)8Me)[Phe(3-COOH)][NMeY]C[PEG4]-NH2; thioether N-15)
100 to 1000	CC[C@H](C)[C@@H]1NC(=O)[C@H](Cc2ccc(OCC(=O)O)cc2)NC(=O)[C@H](Cc2ccc(N)nc2)NC(=O)[C@H](CC(N)=O)NC(=O)[C@H](Cc2cn(CC(=O)O)c3ccccc23)NC(=O)[C@H](C(C)C)NC(=O)[C@H](Cc2cccc(Cl)c2)N(C)C(=O)[C@H](C(C)C)NC(=O)[C@H](C)NC(=O)CSC[C@@H](C(=O)NCCOCCOCCOCCOCCC(N)=O)NC(=O)[C@H](Cc2ccc(O)cc2)N(C)C(=O)[C@H](Cc2ccncc2)NC(=O)[C@H](CCC(=O)NCCOCCOCCOCCOCCOCCOCCOCCOC)NC(=O)[C@H](CCCNC(=N)N)NC(=O)[C@H]([C@@H](C)CC)NC1=O [compound 88] ({CH2CO}-AV[NMePhe(3-Cl)]V[Trp(1-CH2COOH)]N[3Pal(6-NH2)]Y(Carboxymethyl)IIRE(NH(CH2CH2O)8Me)[4Pal][NMeY]C[PEG4]-NH2; thioether N-15)
1 to 100	CC[C@H](C)[C@@H]1NC(=O)[C@H](Cc2ccc(OCC(=O)O)cc2)NC(=O)[C@H](Cc2ccc(O)cc2)NC(=O)[C@H](CC(N)=O)NC(=O)[C@H](Cc2c[nH]c3ccccc23)NC(=O)[C@H](C(C)C)NC(=O)[C@H](Cc2cccc(Cl)c2)N(C)C(=O)[C@H](C(C)C)NC(=O)[C@H](C)NC(=O)CSC[C@@H](C(=O)NCCOCCOCCOCCOCCC(N)=O)NC(=O)[C@H](Cc2ccc(O)cc2)N(C)C(=O)[C@H](Cc2ccccc2)NC(=O)[C@H](CCC(=O)NCCOCCOCCOCCOCCOCCOCCOCCOC)NC(=O)[C@H](CCCNC(=N)N)NC(=O)[C@H]([C@@H](C)CC)NC1=O [compound 89]
1 to 100	CC[C@H](C)[C@@H]1NC(=O)[C@H](Cc2ccc(OC)cc2)NC(=O)[C@H](Cc2ccc(O)cc2)NC(=O)[C@H](CC(N)=O)NC(=O)[C@H](Cc2c[nH]c3ccccc23)NC(=O)[C@H](C(C)C)NC(=O)[C@H](Cc2cccc(Cl)c2)N(C)C(=O)[C@H](C(C)C)NC(=O)[C@H](C)NC(=O)CSC[C@@H](C(=O)NCCOCCOCCOCCOCCC(N)=O)NC(=O)[C@H](Cc2ccc(O)cc2)N(C)C(=O)[C@H](Cc2cccc(C(=O)O)c2)NC(=O)[C@H](CCC(=O)NCCOCCOCCOCCOCCOCCOCCOCCOC)NC(=O)[C@H](CCCNC(=N)N)NC(=O)[C@H]([C@@H](C)CC)NC1=O [compound 90] ({CH2CO}-AV[NMePhe(3-Cl)]VWNYY(Me)IIRE(NH(CH2CH2O)8Me)[Phe(3-COOH)][NMeY]C[PEG4]-NH2; thioether N-15)
1 to 100	CC[C@H](C)[C@@H]1NC(=O)[C@H](Cc2ccc(OCC(=O)O)cc2)NC(=O)[C@H](Cc2ccc(N)nc2)NC(=O)[C@H](CC(N)=O)NC(=O)[C@H](Cc2c[nH]c3ccccc23)NC(=O)[C@H](C(C)C)NC(=O)[C@H](Cc2cccc(Cl)c2)N(C)C(=O)[C@H](C(C)C)NC(=O)[C@H](C)NC(=O)CSC[C@@H](C(=O)NCCOCCOCCOCCOCCC(N)=O)NC(=O)[C@H](Cc2ccc(O)cc2)N(C)C(=O)[C@H](Cc2cccc(C(=O)O)c2)NC(=O)[C@H](CCCNC(=N)N)NC(=O)[C@H](CCCNC(=N)N)NC(=O)[C@H]([C@@H](C)CC)NC1=O [compound 91] ({CH2CO}-AV[NMePhe(3-Cl)]VWN[3Pal(6-NH2)]Y(Carboxymethyl)IIRR[Phe(3-COOH)][NMeY]C[PEG4]-NH2; thioether N-15)
1 to 100	CC[C@H](C)[C@@H]1NC(=O)[C@H](Cc2ccc(OCC(=O)O)cc2)NC(=O)[C@H](Cc2ccc(N)nc2)NC(=O)[C@H](CC(N)=O)NC(=O)[C@H](Cc2c[nH]c3ccccc23)NC(=O)[C@H](C(C)C)NC(=O)[C@H](Cc2cccc(Cl)c2)N(C)C(=O)[C@H](C(C)C)NC(=O)[C@H](C)NC(=O)CSC[C@@H](C(=O)NCCOCCOCCOCCOCCC(N)=O)NC(=O)[C@H](Cc2ccc(O)cc2)N(C)C(=O)[C@H](Cc2ccncc2)NC(=O)[C@H](CCCNC(=N)N)NC(=O)[C@H](CCCNC(=N)N)NC(=O)[C@H]([C@@H](C)CC)NC1=O [compound 92]
1 to 100	CC[C@H](C)[C@@H]1NC(=O)[C@H](Cc2cccnc2)NC(=O)[C@H](Cc2ccc(O)cc2)NC(=O)[C@H](CC(N)=O)NC(=O)[C@H](Cc2c[nH]c3ccccc23)NC(=O)[C@H](C(C)C)NC(=O)[C@H](Cc2cccc(Cl)c2)N(C)C(=O)[C@H](C(C)C)NC(=O)[C@H](C)NC(=O)CSC[C@@H](C(=O)NCCOCCOCCOCCOCCC(N)=O)NC(=O)[C@H](Cc2ccc(O)cc2)N(C)C(=O)[C@H](Cc2cccc(C(=O)O)c2)NC(=O)[C@H](CCC(=O)NCCOCCOCCOCCOCCOCCOCCOCCOC)NC(=O)[C@H](CCCNC(=N)N)NC(=O)[C@H]([C@@H](C)CC)NC1=O [compound 93] ({CH2CO}-AV[NMePhe(3-Cl)]VWNY[3Pal]IIRE(NH(CH2CH2O)8Me)[Phe(3-COOH)][NMeY]C[PEG4]-NH2; thioether N-15)
